Data taken from patent US8992996B2, “Cosmetic” (Restorsea, LLC, priority 2012, dated 2015).

Tested on: follicles (microcomedones)
Set-up: species or system human
Conditions: in vivo
Procedure: A study is conducted to determine the comedogenic potential of test materials in the form of day cream and eye cream with formulations disclosed above by assessing whether the test materials elicited microcomedones, after four weeks of repeated application under occlusive patch conditions, relative to a negative control (undosed patch). Acetylated Lanolin Alcohol served as a positive control material in order to validate the study. The tests are conducted during a 4 week study period. A total of 15 subjects, ranging in age from 22 to 45 years, are selected for the study. All 15 participants completed the study.

average ratio of microcomedones per follicle: 6%
Substance: Acetylated Lanolin Alcohol
ratio of microcomedones to follicles compared with negative control (statistics): significantly greater ratio than the negative control
